Where two headings read alike, the source gives them in different places.
What was measured:
dopamine D2 receptors [1] = target: T1, dopamine D2 receptors (Homo sapiens (Human), UniProt P14416); test: Dopamine D2 receptor β-arrestin2 BRET (recruitment); assay type: cell-based; conditions: for Emax: relative to endogenous ligand dopamine, read-out: β-arrestin2 BRET Emax % ± SEM
Experimental: (§1) To examine the downstream G-protein signaling pathway mediated by dopamine D2 receptors, on the first day, a 6 cm culture dish was used for transfection with 1 μg of dopamine D2 receptors, 1 μg of Gαi1 containing C-terminal seaweed luciferase (Gαi1-Rluc), 1 μg of Gβ3, 1 μg of Gγ9 containing C-terminal green fluorescent protein (Gγ9-GFP) mixed with 16 μL of PEI. At the same time, in order to examine the downstream β-arrestin2 signaling pathway mediated by dopamine D2 receptors, on the first day, a 6 cm culture dish was used for transfection with […] of dopamine D2 receptors containing C-terminal seaweed luciferase (D2-Rluc), […] of G protein-coupled receptor kinase 2 (GRK2), […] of β-arrestin2 containing N-terminal green fluorescent protein (GFP2-ARRB2) mixed with 14 μL of PEI. The next day, the confluent cells of a 6 cm culture dish were digested and reseeded into a 96-well plate with 100 μL of culture medium added to each well. On the third day, the drugs were added for test. The 96-well plate was taken out from the cell incubator to decant the culture medium, 40 μL of the substrate coelenterazine 400a (final concentration of 5 μM) was added to each well, and then 20 μL of different drugs were added sequentially from left to right to ensure that the final concentration of the drug decreased gradually from bottom to top, with two replicates per treatment. Finally, the prepared samples were loaded on machine for test. The machine readout value reflected the recruitment of β-arrestin2 to the membrane or the dissociation of G protein trimer. The former indicated the degree of activation of the β-arrestin2 signaling pathway downstream of the dopamine D2 receptors, and the latter indicated the degree of activation of the G protein signaling pathway downstream of the dopamine D2 receptors.

dopamine D2 receptors [2] = target: T1, dopamine D2 receptors; test: Dopamine D2 receptor radioligand competition binding assay ([3H]-Methylspiperone); conditions: [3H]-Methylspiperone 0.3 to 0.5 nM, 293T membranes
Experimental: The affinity of the compounds of the present disclosure for dopamine D2 receptors was determined by a radioligand competition binding assay.
In the first step, a cell membrane component containing specific dopamine D2 receptors was prepared. A 10 cm culture dish was used for transfection with […] of dopamine D2 receptors and 40 μL of polyethylenimine (PEI hereafter). […] A vacuum pump was used to suck off the culture medium, 3 mL of lysis buffer was added to each culture dish, and the cells were placed in a 4° C. cold room for 10 minutes. After the cells were detached, the cells were transferred to a 15 mL centrifuge tube and centrifuged at 1500 rpm for 5 minutes at 4° C., and the supernatant was discarded. The cell pellet was transferred to a tissue homogenizer, and 3 mL of lysis buffer was added and fully ground until the cells were broken. Then, cell suspension was equally aliquoted into several EP tubes, centrifuged at 12000 rpm for 5 minutes at 4° C., and the supernatant was discarded. The precipitate was the cell membrane component containing the dopamine D2 receptors.
First, a standard binding buffer was added to the cell membrane component containing the dopamine D2 receptors, and the cell membrane was disrupted and resuspended with an electric tissue homogenizer. 30 μL of membrane protein suspension was added to each well of a 96-well plate. Then, 30 μL of different drugs were added to the 96-well plate sequentially from bottom to top to ensure that the final drug concentrations were 10^−5 M, 10^−6 M, 10^−7 M, 10^−8 M, 10^−9 M, and 0 M, with two replicates per treatment. Next, 30 μL of [3H]-Methylspiperone was added to each well of the 96-well plate. The plate was incubated at room temperature in the dark for 2 hours. Detection was conducted. The machine readout value reflected the amount of [3H]-Methylspiperone bound on the membrane, and after further data processing, the affinity Ki values of different compounds for the dopamine D2 receptors were obtained.

dopamine D2 receptors [3] = target: T1, dopamine D2 receptors; test: Dopamine D2 receptor Gαi1 BRET (G protein trimer dissociation); assay type: cell-based; conditions: for Emax: relative to endogenous ligand dopamine, read-out: Gαi1 BRET Emax % ± SEM
Experimental: as §1

[4] = Pharmacokinetics in SD rats, single dose intragastric and intravenous; assay type: in vivo; conditions: male, rat, plasma; for AUC(0-t): read-out: Area under the drug-time curve AUC0-t; for half-life: read-out: Elimination half-life t1/2 (converted); for MRT: read-out: Mean residence time MRT; for Cmax: read-out: Peak drug concentration Cmax
Experimental: Testing of pharmacokinetic properties of compounds administered in a single dose to SD rats by intragastric administration and intravenous injection
After the compound was administered in a single dose to male SD rats, blood samples were collected at different time points. The concentration of the compound in the plasma of the rats was determined by LC-MS/MS and the relevant pharmacokinetic parameters were calculated to investigate the pharmacokinetics of the compound in rats.
Male SD rats were provided by Suzhou JOINN Laboratories Co., Ltd. SD rats were fasted with free access to water for 12 to 14 hours one day before administration, and were fed 4 hours after administration.
For each compound, the […] were divided into two groups: intravenous injection and intragastric administration, with 3 rats in each group. For both intravenous injection (administered at a dose of 3 mg/kg and a concentration of 0.6 mL/kg) and intragastric administration (administered at a dose of 10 mg/kg and a concentration of 1 mL/kg), 5% DMSO+5% Solutol+90% saline was used as the vehicle.
Sample collection: 0.10 mL of blood was collected from the orbit of each animal in IV/PO groups each time at 5 minutes, 15 minutes, 30 minutes, 1 hour, 2 hours, 4 hours, 6 hours, 8 hours, and 24 hours after administration of the test compound, and anticoagulated with EDTA-K2. Blood samples were placed on ice after collection, and plasma was separated by centrifugation within 30 minutes (centrifugation conditions: 5000 rpm, 10 minutes, 4° C.). The collected plasma was stored at −80° C. before analysis.
Data processing: The data acquisition and control system software was Analyst 1.5.1 software (Applied Biosystem). The peak integration method of chromatographic samples was automatic integration; the ratio of the peak area of the sample to the peak area of the internal standard was used as an index for regression with the concentration of the sample. […] Pharmacokinetic parameters were analyzed with a non-compartmental model using WinNonlin Professional v6.3 (Pharsight, USA). Cmax was the measured maximum plasma concentration, the area under the plasma concentration-time curve AUC(0→t) was calculated by the trapezoidal method, and tmax was the time to peak plasma concentration after administration. Experimental data were presented as “Mean±SD” (n≥3) or “Mean” (n=2).

[5] = Brain permeability test, single intraperitoneal dose in C57 male mice; assay type: in vivo; conditions: intraperitoneal 5 mg/kg
Experimental: Using the same method as that in the pharmacokinetic experiment, 0.030 mL of blood was collected from the orbit of each animal at 0.5 hours, 2.0 hours, and 4.0 hours, and anticoagulated with EDTA-K2. Blood samples were placed on ice after collection, and plasma was separated by centrifugation within 30 minutes (centrifugation conditions: 5000 rpm, 10 minutes, 4° C.). The collected plasma was stored at −80° C. before analysis. […] The homogenate was stored at −80° C. before analysis. Drug concentrations in plasma and brain tissues were analyzed by LC/MS/MS for comparison.

[6] = read-out: β-arrestin2 BRET pEC50 ± SEM (converted)
[7] = unit printed only in Cariprazine cell, read-out: β-arrestin2 BRET EC50
[8] = read-out: Affinity pKi ± SEM (converted)
[9] = read-out: Gαi1 BRET pEC50 ± SEM (converted)
[10] = unit printed only in Cariprazine cell, read-out: Gαi1 BRET EC50
[11] = intravenous injection, dose 10 mg/kg

T1 sequence (P14416 whole entry): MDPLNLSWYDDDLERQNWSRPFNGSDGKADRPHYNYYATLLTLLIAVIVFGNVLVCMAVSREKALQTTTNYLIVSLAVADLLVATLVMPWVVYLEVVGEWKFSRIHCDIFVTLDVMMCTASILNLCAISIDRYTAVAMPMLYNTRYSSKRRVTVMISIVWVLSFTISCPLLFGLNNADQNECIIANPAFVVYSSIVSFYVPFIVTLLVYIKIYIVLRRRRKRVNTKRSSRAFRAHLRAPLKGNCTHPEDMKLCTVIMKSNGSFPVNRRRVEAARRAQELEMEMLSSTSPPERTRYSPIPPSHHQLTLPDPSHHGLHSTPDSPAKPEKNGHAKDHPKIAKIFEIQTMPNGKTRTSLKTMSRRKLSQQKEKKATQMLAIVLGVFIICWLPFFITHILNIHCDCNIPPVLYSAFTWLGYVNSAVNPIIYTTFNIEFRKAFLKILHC

COc1cccc2c3c([nH]c12)CN(CCCCOc1ccc2ccc(=O)[nH]c2c1)CC3 [I-B1, 7-(4-(8-methoxy-1,3,4,9-tetrahydro-2H-pyrido[3,4-b]indol-2-yl)butoxy)quinolin-2(1H)-one]
EC50 (dopamine D2 receptors [1]; [6]): 12 nM
Emax (dopamine D2 receptors [1]): 50%
EC50 (dopamine D2 receptors [1]; [7]): 13.1 nM
Ki (dopamine D2 receptors [2]; read-out: Affinity Ki): 362 nM
Ki (dopamine D2 receptors [2]; [8]): 83.2 nM
EC50 (dopamine D2 receptors [3]; [9]): 102 nM
Emax (dopamine D2 receptors [3]): 22%
EC50 (dopamine D2 receptors [3]; [10]): 233 nM

COc1cccc2c3c([nH]c12)CN(CCCOc1ccc2ccc(=O)[nH]c2c1)CC3 [I-B3, 7-(3-(8-methoxy-1,3,4,9-tetrahydro-2H-pyrido[3,4-b]indol-2-yl)propoxy)quinolin-2(1H)-one]
Emax (dopamine D2 receptors [1]): 90%
EC50 (dopamine D2 receptors [1]; [7]): 0.47 nM
Ki (dopamine D2 receptors [2]; read-out: Affinity Ki): 282 nM
Ki (dopamine D2 receptors [2]; [8]): 288 nM
EC50 (dopamine D2 receptors [3]; [9]): 13.2 nM
Emax (dopamine D2 receptors [3]): 41%
EC50 (dopamine D2 receptors [3]; [10]): 13 nM

COc1cccc2c1cc1n2CCN(C/C=C/COc2ccc3ccc(=O)[nH]c3c2)C1 [I-C5, (E)-7-((4-(9-methoxy-3,4-dihydropyrazino[1,2-a]indol-2(1H)-yl)but-2-en-1-yl)oxy)quinolin-2(1H)-one]
Emax (dopamine D2 receptors [1]): 127%
EC50 (dopamine D2 receptors [1]; [7]): 20.8 nM
Affinity pKi ± SEM (dopamine D2 receptors [2]): (6.36 ± 0.28)
Ki (dopamine D2 receptors [2]; read-out: Affinity Ki): 438 nM
EC50 (dopamine D2 receptors [3]; [9]): 97.7 nM
Emax (dopamine D2 receptors [3]): 64%
EC50 (dopamine D2 receptors [3]; [10]): 96.5 nM

COc1cccc2c1cc1n2CCN(CC[C@H]2CC[C@H](NC(=O)N(C)C)CC2)C1 [I-C7, 3-(trans-4-(2-(9-methoxy-3,4-dihydropyrazino[1,2-a]indol-2(1H)-yl)ethyl)cyclohexyl)-1,1-dimethylurea]
Vd ([4]; intravenous injection, dose 10 mg/kg, read-out: Apparent volume of distribution Vdss): 4.75 ± 0.4 L/kg
AUC(0-t) [4, 11]: 2520 ± 446 ng·h/mL
clearance ([4]; intravenous injection, dose 10 mg/kg, read-out: Clearance CL): 20.1 ± 3.6 mL/min/kg
half-life [4, 11]: 3.67 ± 0.1 h
MRT [4, 11]: 3.98 ± 0.4 h
Cmax [4, 11]: 765 ± 74 ng/mL
AUC(0-t) ([4]; oral administration, 10 mg/kg): 10400 ± 1180 ng·h/mL
bioavailability ([4]; oral administration, 10 mg/kg, read-out: Bioavailability F): 123 ± 14%
half-life ([4]; oral administration, 10 mg/kg): 8.54 ± 2.3 h
MRT ([4]; oral administration, 10 mg/kg): 11.5 ± 4.1 h
Cmax ([4]; oral administration, 10 mg/kg): 1000 ± 195 ng/mL
Tmax ([4]; oral administration, 10 mg/kg, read-out: Time to peak concentration tmax): 2 h
EC50 (dopamine D2 receptors [1]; [6]): 195 nM
Emax (dopamine D2 receptors [1]): 151%
EC50 (dopamine D2 receptors [1]; [7]): 291 nM
AUC brain ([5]; brain): 2767 ng·h/mL
Kp at 0.5 h ([5]; male, C57, mouse, brain/plasma, ip, 0.5 h, read-out: 0.5 h ratio (brain/plasma)): 3.05
Kp at 2 h ([5]; male, C57, mouse, brain/plasma, ip, 2.0 h, read-out: 2.0 h ratio (brain/plasma)): 2.67
Kp at 4 h ([5]; male, C57, mouse, brain/plasma, ip, 4.0 h, read-out: 4.0 h ratio (brain/plasma)): 2.24
Kp ([5]; male, C57, mouse, brain/plasma, ip, read-out: AUC ratio (brain/plasma)): 2.71
concentration at 0.5 h ([5]; male, C57, mouse, 0.5 h, brain, read-out: 0.5 h brain concentration): 1030 ± 96 ng/mL
concentration at 0.5 h ([5]; male, C57, mouse, 0.5 h, plasma, read-out: 0.5 h plasma concentration): 336 ± 28 ng/mL
concentration at 2 h ([5]; male, C57, mouse, 2.0 h, brain, read-out: 2.0 h brain concentration): 714 ± 143 ng/mL
concentration at 2 h ([5]; male, C57, mouse, 2.0 h, plasma, read-out: 2.0 h plasma concentration): 267 ± 47 ng/mL
concentration at 4 h ([5]; male, C57, mouse, 4.0 h, brain, read-out: 4.0 h brain concentration): 491 ± 80 ng/mL
concentration at 4 h ([5]; male, C57, mouse, 4.0 h, plasma, read-out: 4.0 h plasma concentration): 219 ± 15 ng/mL
AUC ([5]; male, C57, mouse, ip, plasma): 1020 ng·h/mL
Emax (dopamine D2 receptors [3]): 97%
EC50 (dopamine D2 receptors [3]; [10]): 123 nM
